In PMC7827085 (Pharmaceutics, 2021):
Where two headings read alike, the source gives them in different places.

How the values were obtained:
[1] = in patients; lopinavir may reach, ritonavir may peak; ref FDA label 021226s018lbl / EMA Kaletra EPAR scientific discussion; cited from earlier work
ABCC1/MRP1 [2] = target: T1, ABCC1/MRP1 (Homo sapiens, UniProt P33527)
ABCB1/MDR1/Pgp [3] = target: T2, ABCB1/MDR1/Pgp (Homo sapiens, UniProt P08183); experiment: in vitro; conditions: human
Procedure: (§1) For the ABC transporter assays, we used both cell-based and membrane-based functional assays. […] The respective transport activities were assayed by measuring the cellular fluorescence of the respective transported substrates Phengreen (ABCG2) and Calcein (ABCB1 and ABCC1).
(§2) The cells were kept on ice until the flow cytometry measurements. All experiments were performed in triplicate and in at least three biological parallels.
(§3) The cells were kept on ice until the flow cytometry measurements. All experiments were performed in triplicate and in at least three biological parallels. […] The PhenGreen (PG) or Calcein signal was detected in the BL1 channel (emission filter: 530/30 nm). Analysis of the data was carried out by the Attune Nxt Cytometer Software v3.1.2 (Thermo Fischer Scientific, Waltham, MA, USA). The inhibition of transporter activity was calculated by comparing the fluorescence in the presence of the test compound to that in the presence of a specific inhibitor providing maximum inhibition. […] Half-maximum inhibition (IC50) values were calculated by using the Origin2019 software (9.6.5.169, OriginLab Corporation, Northampton, MA, USA). […] In these experiments, we measured Hoechst dye extrusion in HeLa cells stably expressing eGFP and the ABCG2 variants driven by the same promoter—the transgenic cells generated by the Sleeping Beauty transposon system. […] For details, see Zámbó et al.). […] The maximum inhibition was defined for each variant as the fluorescence difference of the samples incubated with and without Ko143, respectively. […] Data analysis was performed using the Attune Nxt Cytometer Software v3.1.2. Two samples per condition and three biological replicates were examined in each experiment.
ABCB1 is a high-affinity active efflux transporter of the viability dye Calcein-AM (CaAM). […] Here, we applied this widely used cellular assay (see https://www.solvobiotech.com/services/categories/dye-efflux-assays) to characterize drug interactions of the applied compounds in intact PLB-985 cells, expressing high levels of the ABCB1 protein.

ABCB1/MDR1/Pgp [4] = target: T2, ABCB1/MDR1/Pgp; experiment: in vitro; conditions: Estimated Transporter Inhibition IC50, ABCB1 vesicular assay, ATP-dependent NMQ uptake, HEK-293/ABCB1 inverted membrane vesicles, '-' = no inhibition
ABCG2/BCRP [5] = target: T3, ABCG2/BCRP (Homo sapiens, UniProt Q9UNQ0); experiment: in vitro; conditions: human
T3 sequence (Q9UNQ0 1-655): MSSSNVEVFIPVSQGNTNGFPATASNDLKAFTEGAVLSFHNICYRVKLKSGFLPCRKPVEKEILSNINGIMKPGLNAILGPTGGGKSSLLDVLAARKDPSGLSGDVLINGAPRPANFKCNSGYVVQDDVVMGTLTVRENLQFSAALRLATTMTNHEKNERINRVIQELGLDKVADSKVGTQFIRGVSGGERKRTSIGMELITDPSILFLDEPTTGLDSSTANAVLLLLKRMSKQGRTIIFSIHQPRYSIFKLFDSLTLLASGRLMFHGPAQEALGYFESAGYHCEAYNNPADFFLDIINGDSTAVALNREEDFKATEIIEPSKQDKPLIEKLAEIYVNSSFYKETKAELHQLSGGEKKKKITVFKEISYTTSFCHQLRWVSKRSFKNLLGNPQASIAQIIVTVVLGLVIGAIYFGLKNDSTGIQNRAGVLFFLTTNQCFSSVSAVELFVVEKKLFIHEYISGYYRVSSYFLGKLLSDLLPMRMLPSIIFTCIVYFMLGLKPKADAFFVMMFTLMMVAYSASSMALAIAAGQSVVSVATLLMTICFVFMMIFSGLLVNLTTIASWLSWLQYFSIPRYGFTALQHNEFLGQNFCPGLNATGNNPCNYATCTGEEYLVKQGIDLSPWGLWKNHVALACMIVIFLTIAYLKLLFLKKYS
Procedure: These were employed at 37 °C for 10 min (ABCG2), 1 min (ABCB1), or 3 min (ABCC1), with or without 4 mM Mg-ATP, in a 50 μL final volume. The known reference inhibitors of the transporters (1 µM Ko143 for ABCG2, 1 µM Valspodar for ABCB1, and 200 µM Benzbromarone for ABCC1) served as controls. Each test compound was dissolved in DMSO and a 1 µL volume was added to the samples. After incubation, the samples were filtered and washed, and the substrates in the vesicles were dissolved in 10% SDS and transferred onto another plate. After the addition of a stabilizer, the fluorescence was measured in plate readers (Victor X3 and Enspire Perkin-Elmer, Waltham, MA, USA), while the activity of the radiolabeled substrate was measured by liquid scintillation counting (Perkin Elmer MicroBeta2 liquid scintillation counter, Perkin Elmer, Waltham, MA, USA). ABC transporter-related vesicular transport was calculated by subtracting uptake measured in the presence of Mg-AMP from the values measured in the presence of Mg-ATP.
The effects of the test compounds on ABCG2 activity were also measured in a vesicular transport assay by using inverted membrane vesicles prepared from HEK-293 cells expressing high levels of the ABCG2 transporter.

ABCC1/MRP1 [6] = target: T1, ABCC1/MRP1; experiment: in vitro; conditions: HL60/ABCC1 cells
Procedure: as §1, §2, §3
Therefore, we applied this assay to characterize the test drug interactions in intact HL60 cells expressing high levels of the ABCC1 protein.

ABCG2/BCRP [7] = target: T3, ABCG2/BCRP; experiment: in vitro; conditions: human; remark: listed apart in the source
Procedure: as §1, §3
Here, we used both PhenGreen-SK diacetate and Hst dye for these measurements. The PhenGreen (PG) assay is a recently patented method applied for ensuring an efficient ABCG2 transport measurement, as the non-fluorescent PhenGreen diacetate (PG-DA) is actively extruded by ABCG2 and the cellular fluorescence is correlated with ABCG2 transport activity. Therefore, we applied this assay to characterize the test drug interactions in intact PLB-985 cells expressing high levels of the ABCG2 protein. […] ABCG2 inhibition by the test compounds was estimated by their relative (%) inhibition compared to full inhibition by Ko143.

T1 sequence (P33527 whole entry): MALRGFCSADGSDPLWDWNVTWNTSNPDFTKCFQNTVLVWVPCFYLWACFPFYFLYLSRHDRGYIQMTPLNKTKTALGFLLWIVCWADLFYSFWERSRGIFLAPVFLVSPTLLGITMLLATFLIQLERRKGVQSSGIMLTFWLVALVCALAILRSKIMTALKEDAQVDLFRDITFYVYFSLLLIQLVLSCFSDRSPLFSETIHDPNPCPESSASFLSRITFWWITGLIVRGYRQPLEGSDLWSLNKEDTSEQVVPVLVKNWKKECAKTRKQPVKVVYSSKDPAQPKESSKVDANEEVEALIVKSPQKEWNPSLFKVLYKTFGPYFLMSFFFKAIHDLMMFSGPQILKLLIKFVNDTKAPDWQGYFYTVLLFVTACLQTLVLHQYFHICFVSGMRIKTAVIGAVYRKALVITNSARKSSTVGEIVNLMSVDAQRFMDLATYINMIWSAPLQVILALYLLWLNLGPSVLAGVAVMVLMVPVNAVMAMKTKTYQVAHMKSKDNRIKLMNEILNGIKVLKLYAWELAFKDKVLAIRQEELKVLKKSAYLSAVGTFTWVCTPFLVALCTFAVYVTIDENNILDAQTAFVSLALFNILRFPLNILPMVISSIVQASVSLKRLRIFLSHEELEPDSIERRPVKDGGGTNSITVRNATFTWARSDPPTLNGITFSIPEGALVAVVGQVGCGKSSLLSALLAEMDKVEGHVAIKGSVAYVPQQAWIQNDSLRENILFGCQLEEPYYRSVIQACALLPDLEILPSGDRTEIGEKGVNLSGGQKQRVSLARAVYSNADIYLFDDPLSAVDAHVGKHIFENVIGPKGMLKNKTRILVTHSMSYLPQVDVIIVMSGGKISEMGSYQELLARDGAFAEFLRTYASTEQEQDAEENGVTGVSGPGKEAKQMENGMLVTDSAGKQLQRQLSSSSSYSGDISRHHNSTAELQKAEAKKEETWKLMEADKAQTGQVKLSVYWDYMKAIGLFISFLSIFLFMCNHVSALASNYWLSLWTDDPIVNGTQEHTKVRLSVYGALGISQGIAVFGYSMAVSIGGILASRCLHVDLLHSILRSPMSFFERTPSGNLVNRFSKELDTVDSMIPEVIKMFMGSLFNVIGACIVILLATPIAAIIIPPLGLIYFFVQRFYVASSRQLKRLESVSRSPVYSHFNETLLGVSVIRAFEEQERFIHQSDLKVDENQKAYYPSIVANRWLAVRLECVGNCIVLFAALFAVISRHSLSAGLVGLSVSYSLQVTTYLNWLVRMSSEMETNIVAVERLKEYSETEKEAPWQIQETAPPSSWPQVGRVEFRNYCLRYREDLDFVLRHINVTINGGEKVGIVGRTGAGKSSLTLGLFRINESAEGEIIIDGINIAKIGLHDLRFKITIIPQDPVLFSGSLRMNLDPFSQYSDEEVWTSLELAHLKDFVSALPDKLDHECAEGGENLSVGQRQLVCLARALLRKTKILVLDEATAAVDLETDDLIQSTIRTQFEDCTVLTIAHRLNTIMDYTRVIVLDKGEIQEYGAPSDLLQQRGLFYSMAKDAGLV
T2 sequence (P08183 whole entry): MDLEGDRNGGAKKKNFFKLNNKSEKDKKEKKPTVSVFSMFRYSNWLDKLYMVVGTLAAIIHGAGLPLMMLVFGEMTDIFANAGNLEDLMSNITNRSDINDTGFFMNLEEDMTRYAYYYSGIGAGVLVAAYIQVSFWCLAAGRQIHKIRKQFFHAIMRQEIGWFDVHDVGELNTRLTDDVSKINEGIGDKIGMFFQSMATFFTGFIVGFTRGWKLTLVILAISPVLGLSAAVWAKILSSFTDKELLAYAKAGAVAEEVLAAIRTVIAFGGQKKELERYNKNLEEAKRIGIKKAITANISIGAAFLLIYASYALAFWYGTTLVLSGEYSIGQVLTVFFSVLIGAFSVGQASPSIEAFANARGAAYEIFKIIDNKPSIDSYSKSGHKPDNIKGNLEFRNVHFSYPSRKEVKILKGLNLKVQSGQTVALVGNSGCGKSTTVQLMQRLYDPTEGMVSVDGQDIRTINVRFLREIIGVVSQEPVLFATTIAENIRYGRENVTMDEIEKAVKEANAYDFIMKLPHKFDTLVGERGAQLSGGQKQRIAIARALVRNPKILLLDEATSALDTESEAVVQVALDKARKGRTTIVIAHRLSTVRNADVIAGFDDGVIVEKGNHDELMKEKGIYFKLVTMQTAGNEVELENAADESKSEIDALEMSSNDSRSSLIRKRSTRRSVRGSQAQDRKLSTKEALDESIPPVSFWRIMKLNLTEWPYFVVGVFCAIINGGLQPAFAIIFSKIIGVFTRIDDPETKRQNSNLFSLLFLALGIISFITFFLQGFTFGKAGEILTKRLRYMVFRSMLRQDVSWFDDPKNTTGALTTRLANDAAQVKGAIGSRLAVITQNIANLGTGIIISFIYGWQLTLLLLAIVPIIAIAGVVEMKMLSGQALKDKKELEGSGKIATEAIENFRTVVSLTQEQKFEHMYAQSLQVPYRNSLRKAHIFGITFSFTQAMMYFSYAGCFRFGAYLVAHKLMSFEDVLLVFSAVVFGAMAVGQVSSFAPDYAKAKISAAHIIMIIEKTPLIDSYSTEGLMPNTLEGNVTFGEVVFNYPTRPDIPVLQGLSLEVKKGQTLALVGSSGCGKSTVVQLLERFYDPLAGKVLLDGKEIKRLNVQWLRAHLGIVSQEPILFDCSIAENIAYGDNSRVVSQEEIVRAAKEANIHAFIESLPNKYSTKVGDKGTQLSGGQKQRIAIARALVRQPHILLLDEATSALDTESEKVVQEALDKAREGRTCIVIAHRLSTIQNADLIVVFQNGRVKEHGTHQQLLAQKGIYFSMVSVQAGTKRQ

| SMILES | Plasma concentration in patients [1] | Effect on ABCC1 vesicular ETGB transport (in words) (ABCC1/MRP1 [2]; Sf9/ABCC1 membrane vesicles) | IC50 at 40 min (ABCB1/MDR1/Pgp [3]) [µM] | IC50 (ABCB1/MDR1/Pgp [4]) [µM] | IC50 at 10 min (ABCG2/BCRP [5]) [µM] | Effect on ABCC1-dependent CaAM extrusion (in words) (ABCC1/MRP1 [6]) | IC50 at 40 min (ABCG2/BCRP [7]) [µM] | Effect on ABCC1 vesicular ETGB transport (in words) (ABCC1/MRP1 [2]) |
| --- | --- | --- | --- | --- | --- | --- | --- | --- |
| CC(C)c1nc(CN(C)C(=O)N[C@H](C(=O)N[C@@H](Cc2ccccc2)C[C@H](O)[C@H](Cc2ccccc2)NC(=O)OCc2cncs2)C(C)C)cs1 [ritonavir] | about 1 μM | practically no effect | – | – | – | – | – | – |
| CCN(CC)CCCC(C)Nc1ccnc2cc(Cl)ccc12 (centres unmarked) [chloroquine] | – | – | > 50 | > 50 | > 50 | practically no effect | > 50 | practically no effect |
